Measured values reported in patent US11299512B2 (priority 2016, dated 2022).
Read-outs that look alike come from different tables or passages of the source.

System: THP1 luciferase reporter cells
Assay: cells
Assay type: cell-based
[1] = Homo sapiens, THP-1, 16 h, read-out: THP1-ISG-Luc with PFO, EC50
[2] = Homo sapiens, THP-1, 16 h, read-out: THP-ISG-Luc without PFO, EC50
[3] = 16 hours, read-out: THP1-ISG-Luc with PFO, EC50
[4] = 16 hours, read-out: THP-ISG-Luc without PFO, EC50

Row | Compound | EC50 [1] [nM] | EC50 [2] [nM] | further results
1 | BP1(=O)OC[C@H]2O[C@@H](n3cnc4c(=O)[nH]c(N)nc43)C(OP(=O)(O)OC[C@H]3O[C@@H](n4cnc5c(N)ncnc54)C(O)C3O1)C2O (stereo in doubt) [EA10] | < 100 | < 30000 | 
2 | BP1(=O)OC[C@H]2O[C@@H](n3cnc4c(=O)[nH]c(N)nc43)[C@@H](OP(B)(=O)OC[C@H]3O[C@@H](n4cnc5c(N)ncnc54)[C@@H](O)C3O1)C2O (stereo in doubt) [EA11] | < 100 | < 30000 | 
3 | Nc1nc2c(ccn2[C@@H]2O[C@@H]3COP(=O)(O)OC4C(O)[C@H](n5cnc6c(N)ncnc65)O[C@@H]4COP(=O)(S)OC2C3O)c(=O)[nH]1 (stereo in doubt) [EB3] | < 100 | < 30000 | 
4 | Nc1nc2c(ccn2[C@@H]2O[C@@H]3COP(=O)(O)OC4C(O)[C@H](n5cnc6c(NCCO)ncnc65)O[C@@H]4COP(=O)(S)OC2C3O)c(=O)[nH]1 (stereo in doubt) [EB5] | 100 to 1000 | > 100000 | 
5 | Nc1nc2c(ncn2[C@@H]2O[C@@H]3COP(=O)(O)OC4C(O)[C@H](n5ccc6c(N)ncnc65)O[C@@H]4COP(=O)(O)OC2C3OCC(F)(F)F)c(=O)[nH]1 (stereo in doubt) [EC3] | 100 to 1000 | < 30000 | 
6 | COC1C2OP(=O)(O)OC[C@H]3O[C@@H](n4cnc5c(=O)[nH]c(N)nc54)C(OP(=O)(O)OC[C@H]2O[C@H]1n1cnc2c(N)ncnc21)C3OCC(F)(F)F (stereo in doubt) [EC10] | > 1000 | > 100000 | 
7 | Nc1nc2c(ncn2[C@@H]2O[C@@H]3COP(=O)(O)OC4C(O)[C@H](n5cnc6c(N)ncnc65)O[C@@H]4COP(=O)(O)OC2C3CCO)c(=O)[nH]1 (stereo in doubt) [EC12] | < 100 | < 30000 | 
8 | Nc1nc2c(ncn2[C@@H]2O[C@@H]3COP(=O)(O)OC4C(O)[C@@H](COP(=O)(O)OC2C3OCC(F)(F)F)O[C@H]4n2cnc3c(N)ncnc32)c(=O)[nH]1 (stereo in doubt) [EC13] | 100 to 1000 | < 30000 | 
9 | Nc1nc2c(ncn2[C@@H]2O[C@@H]3COP(=O)(O)OC4C[C@H](n5ccc6ccccc65)O[C@@H]4COP(=O)(O)OC2C3OCC(F)(F)F)c(=O)[nH]1 (stereo in doubt) [EC16] | > 1000 | > 100000 | 
10 | Nc1nc2c(ncn2[C@@H]2O[C@@H]3COP(=O)(O)OC4C[C@H](c5cccc6ccccc56)O[C@@H]4COP(=O)(O)OC2C3OCC(F)(F)F)c(=O)[nH]1 (stereo in doubt) [EC19] | > 1000 | > 100000 | 
11 | Nc1nc2c(ncn2[C@@H]2O[C@@H]3COP(=O)(O)OC4C(O)[C@H](n5cnc6c(N)ncnc65)O[C@@H]4CNc4c(c(=O)c4=O)NC2C3O)c(=O)[nH]1 (stereo in doubt) [EC22] | > 1000 | > 100000 | 
12 | CCCC1C2OP(=O)(O)OC[C@H]3O[C@@H](n4cnc5c(N)ncnc54)C(O)C3OP(=O)(O)OC[C@H]1O[C@H]2n1cnc2c(=O)[nH]c(N)nc21 (stereo in doubt) [EC24] | < 100 | < 30000 | 
13 | Nc1nc2c(ncn2[C@@H]2O[C@@H]3COP(=O)(O)OC4C(O)[C@H](n5cnc6c5ncn5ccnc65)O[C@@H]4COP(=O)(O)OC2C3OCC(F)(F)F)c(=O)[nH]1 (stereo in doubt) [EC26] | 100 to 1000 | > 100000 | 
14 | Nc1nc2c(ncn2[C@@H]2O[C@@H]3COP(=O)(O)OC4C(O)[C@H](n5cnc6c(N)ncnc65)O[C@@H]4COP(=O)(O)OC2C3O)c(=O)[nH]1 (stereo in doubt) [Example E1] | < 100 | < 30000 | 
15 | COC1C2OP(=O)(O)OC[C@H]3O[C@@H](n4cnc5c(N)ncnc54)C(O)C3OP(=O)(O)OC[C@H]1O[C@H]2n1cnc2c(=O)[nH]c(N)nc21 (stereo in doubt) [Example E3] | < 100 | < 30000 | 
16 | C#CCOc1nc(N)nc2c1ncn2[C@@H]1O[C@@H]2COP(=O)(O)OC3C(O)[C@H](n4cnc5c(N)ncnc54)O[C@@H]3COP(=O)(O)OC1C2O (stereo in doubt) [Example E4] | < 100 | < 30000 | 
17 | Nc1nc2c(ncn2[C@@H]2O[C@@H]3COP(=O)(O)OC4C(O)[C@H](n5ccc6c(N)ncnc65)O[C@@H]4COP(=O)(O)OC2C3O)c(=O)[nH]1 (stereo in doubt) [Example E5] | > 1000 | > 100000 | 
18 | C#CCOC1[C@H]2OP(=O)(O)OC[C@H]3O[C@@H](n4cnc5c(=O)[nH]c(N)nc54)[C@@H](OP(=O)(O)OC[C@H]2O[C@H]1n1cnc2c(N)ncnc21)C3O (stereo partly drawn) [EA3] | > 1000 | > 100000 | 
19 | Nc1ncnc2c1ccn2[C@@H]1O[C@@H]2COP(=O)(S)OC3C(O)[C@@H](COP(=O)(O)OC2C1O)O[C@H]3n1ccc2c(N)ncnc21 (stereo partly drawn) [EC6] | > 1000 | > 100000 | 
20 | Nc1ncnc2c1ccn2[C@@H]1O[C@@H]2COP(=O)(S)OC3C(O)[C@@H](COP(=O)(O)OC2C1O)O[C@H]3n1ccc2c(N)ncnc21 (stereo partly drawn) [EC7] |  |  | EC50 [3]: > 1000 nM; EC50 [4]: > 100000 nM
21 | Nc1nc2c(ncn2[C@@H]2O[C@@H]3COP(=O)(S)OC4C(O)[C@H](n5nnc6c(N)ncnc65)O[C@@H]4COP(=O)(S)OC2C3O)c(=O)[nH]1 (stereo partly drawn) [Example E19] | > 1000 | > 100000 | 
22 | Nc1nc2c(ccn2[C@@H]2O[C@@H]3COP(=O)(S)OC4[C@@H](COP(=O)(S)O[C@H]2C3O)O[C@@H](n2ccc3c(N)ncnc32)[C@H]4O)c(=O)[nH]1 (stereo partly drawn) [Example E23] | < 100 | < 30000 | 
23 | Nc1nc2c(ncn2[C@@H]2O[C@@H]3COP(=O)(O)O[C@@H]4C(O)[C@H](n5cnc6c(N)ncnc65)O[C@@H]4COP(=O)(N4CCOCC4)OC2[C@H]3O)c(=O)[nH]1 (stereo partly drawn) [Example E24] |  |  | EC50 (Homo sapiens, THP-1, 16 hours, read-out: THP1-ISG-Luc with PFO, EC50): 100 to 1000 nM; EC50 (Homo sapiens, THP-1, 16 hours, read-out: THP-ISG-Luc without PFO, EC50): < 30000 nM
24 | EC23 |  |  | EC50 [3]: > 1000 nM; EC50 [4]: > 100000 nM
